Eleven compounds from ChEMBL document CHEMBL1201862, “PubChem BioAssay data set” (2004) can be followed below.

Holding throughout (assay): NCI-60 cell line screen, 48 h
Assay [1] has as its system OVCAR-3.
Assay [2] has as its system ACHN.
The subject of assay [3] is SK-OV-3.
Assay [4] concerns TK-10.
The test system of assay [5] is UACC-62.
The subject of assay [6] is NCI-H23.
Assay [7] has as its system HCT-15.
Assay [8] relates to SF-268.
The test system of assay [9] is RPMI-8226.
In assay [10] the test system is T47D.
For assay [11], the system named is HT-29.
For assay [12], the system named is HOP-92.
Assay [13] deals with COLO 205.
The test system of assay [14] is HCC 2998.
Assay [15] concerns DU-145.
Assay [16] has as its system NCI-H522.
For assay [17], the system named is SK-MEL-28.
Assay [18] deals with SK-MEL-2.
For assay [19], the system named is SF-539.
Assay [20] relates to Malme-3M.

Each structure is given as a SMILES string.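 Grown in 96-well plates, cells were treated for 48 hours with each compound at five concentrations. Insufficient inhibition: endpoint recorded as highest concentration tested. GI50 is the concentration that inhibits growth by half.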 The source made the active and inactive calls. Cut-off read from the data, not from the text of the source: active = GI50 up to about 1.1 µM and inactive = higher.

Turning to `O=C(c1ccccc1)c1ccc2[nH]c(-c3c(Cl)c(Cl)c(Cl)c(Cl)c3C(=O)Nc3ccco3)nc2c1`, the GI50 in [1] was 49.4 µM (inactive); in assay [2], > 100 µM (inactive); in [3] it was > 100 µM (inactive); in assay [4] it was 39.7 µM (inactive); in assay [5], 49.5 µM (inactive); in assay [6], 4.86 µM (inactive). In addition, the GI50 is 27.2 µM in assay [7]; 27 µM (inactive) in assay [8]; 19.8 µM (inactive) in [9]; 37 µM (inactive) in assay [10]; 28.4 µM (inactive) in assay [11]; 40.5 µM (inactive) in assay [12]. Also, the GI50 in [13] was 45.5 µM (inactive); in assay [14], 15.4 µM (inactive); in assay [15], 78.9 µM (inactive); in assay [16] it was 25.7 µM (inactive); in [17], 81.1 µM (inactive); in assay [18], 20.9 µM (inactive).

`[N-]=[N+]=NCN1C(=O)C2C3C=CC(C2C1=O)C1C2C(=O)N(CN=[N+]=[N-])C(=O)C2C31` (configuration not stated): the GI50 in [1] was > 100 µM (inactive); in assay [2] it was > 100 µM (inactive); in assay [4], > 100 µM (inactive); in assay [5] it was > 100 µM (inactive); in assay [6], > 100 µM (inactive); in assay [7] it was more than 100 µM. Further, the GI50 in assay [8] is > 100 µM (inactive); in [9], > 100 µM (inactive); in [10] it was > 100 µM (inactive); in assay [11], > 100 µM (inactive); in assay [12], 12.5 µM (inactive); in assay [13], > 100 µM (inactive). The GI50 in [19] is > 100 µM (inactive); in assay [14], 11.7 µM (inactive); in assay [15], > 100 µM (inactive); in assay [16], > 100 µM (inactive); in assay [17], > 100 µM (inactive); in assay [18], > 100 µM (inactive).

In the case of `Cc1ccccc1/N=N/c1c(O)ccc2ccccc12`, the GI50 in [1], in [20], in [2], in assay [3], in [4] and in assay [5] was > 100 µM (inactive) each time. In addition, the GI50 in [6] is > 100 µM (inactive); in assay [7], more than 100 µM; in assay [8] it was 62.4 µM (inactive); in assay [9], > 100 µM (inactive); in assay [10] it was 59.3 µM (inactive); in [11] it was > 100 µM (inactive). The GI50 in assay [12], in assay [13], in assay [15], in assay [16], in assay [17] and in assay [18] was > 100 µM (inactive) throughout.

Regarding `ClC1=C(Cl)C2OC3C=CCC3OC2C(Cl)=C1Cl` (configuration not stated), the GI50 in assay [1] was > 100 µM (inactive); in [2], 91 µM (inactive); in assay [3], > 100 µM (inactive); in assay [4], > 100 µM (inactive); in [6], 56.4 µM (inactive); in [7] it was 32.1 µM. The GI50 was 73.5 µM (inactive) in assay [8]; 23 µM (inactive) in assay [9]; 2.47 µM (inactive) in [10]; 21.3 µM (inactive) in [11]; 28.8 µM (inactive) in [12]; > 100 µM (inactive) in [19]. Besides, the GI50 in [14] is 29.4 µM (inactive); in assay [15] it was > 100 µM (inactive); in [16] it was 32.2 µM (inactive); in assay [17], > 100 µM (inactive); in assay [18], 18.8 µM (inactive).

For `COc1ccc(C(=O)c2ccc(-n3c4ccccc4c4ccc5c(c43)C(=O)C=CC5=O)cc2)cc1`, the GI50 in assay [1] is 1.14 µM (inactive); in assay [2], 0.8 µM (active); in [3] it was 13.7 µM (inactive); in [4], 1.43 µM (inactive); in [5] it was 3.03 µM (inactive); in assay [6], 1.7 µM (inactive). Further, the GI50 in assay [7] was 1.9 µM; in assay [8] it was 0.647 µM (active); in [9], 0.794 µM (active); in [10] it was 1.06 µM (active); in [11], 1.06 µM (active); in assay [12], 1.99 µM (inactive). For the same compound, the GI50 in [13] is 2.89 µM (inactive); in [19], 2.61 µM (inactive); in [14] it was 5.61 µM (inactive); in [15], 3.1 µM (inactive); in assay [16] it was 0.217 µM (active); in assay [17], 2.99 µM (inactive). In addition, the GI50 in assay [18] is 3.88 µM (inactive).

For the compound `COc1cccc(-c2nc(-c3cnccn3)n(C3OC(CO)C(O)C3O)n2)c1` (configuration not stated), the GI50 in assay [1] is > 100 µM (inactive); in assay [3], > 100 µM (inactive); in assay [4], > 100 µM (inactive); in assay [5], > 100 µM (inactive); in assay [6] it was > 100 µM (inactive); in [7], more than 100 µM. Besides, the GI50 in [8], in assay [10], in assay [11], in assay [12], in [13] and in [19] was > 100 µM (inactive) throughout. Moreover, the GI50 in assay [14], in assay [15], in [16] and in assay [17] was > 100 µM (inactive) each time.

As to `NNC(=O)c1cc(=O)[nH][nH]1`, the GI50 in [20], in assay [2], in assay [3], in [4], in [5] and in [6] was > 100 µM (inactive) in each case. For the same compound, the GI50 in assay [7] was more than 100 µM; in assay [8], > 100 µM (inactive); in [9] it was > 100 µM (inactive); in assay [10], > 100 µM (inactive); in assay [11] it was > 100 µM (inactive); in [12], > 100 µM (inactive). Further, the GI50 in assay [13], in assay [19], in assay [15], in [16] and in assay [18] was > 100 µM (inactive) throughout.

For the compound `CNC(=O)NS(=O)(=O)c1ccc(C)cc1.NS(=O)O`, the GI50 in assay [20], in assay [2], in assay [3], in assay [4], in assay [5] and in [6] was > 100 µM (inactive) in each case. In addition, the GI50 in assay [7] was more than 100 µM; in assay [8], > 100 µM (inactive); in assay [9] it was > 100 µM (inactive); in assay [10], > 100 µM (inactive); in assay [11], > 100 µM (inactive); in assay [12], > 100 µM (inactive). For the same compound, the GI50 in assay [13], in assay [19], in [15], in assay [16], in [17] and in assay [18] was > 100 µM (inactive) throughout.

Consider `CC1CCCC2(CC[N+](C)(CCC[N+](C)(C)C)CC2)C1` (configuration not stated), for which the GI50 in assay [1], in [20], in [2], in [3], in assay [4] and in [5] was > 100 µM (inactive) throughout. For the same compound, the GI50 in assay [7] was more than 100 µM; in assay [8] it was > 100 µM (inactive); in assay [9], > 100 µM (inactive); in assay [10], > 100 µM (inactive); in [11], > 100 µM (inactive); in [12], > 100 µM (inactive). For the same compound, the GI50 in assay [13], in [19], in assay [15], in [16], in assay [17] and in assay [18] was > 100 µM (inactive) each time.

With `O=C(O)CN(CC(=O)O)Cc1cc2c(cc1O)Oc1cc(O)c(CN(CC(=O)O)CC(=O)O)cc1C21OC(=O)c2ccccc21` [OFTASCEINE], the GI50 in assay [1], in [2], in assay [3], in assay [4], in assay [5] and in assay [6] was > 100 µM (inactive) in each case. For the same compound, the GI50 is more than 100 µM in [7]; > 100 µM (inactive) in assay [8]; > 100 µM (inactive) in assay [9]; > 100 µM (inactive) in assay [10]; > 100 µM (inactive) in assay [11]; > 100 µM (inactive) in assay [12]. The GI50 in assay [13], in assay [19], in [14], in [15], in assay [16] and in assay [17] was > 100 µM (inactive) throughout. In assay [18], the GI50 is > 100 µM (inactive).

In the case of `O=C(/C=C/c1ccc(Oc2cc(C(=O)/C=C/c3ccc(O)cc3)c(O)cc2O)cc1)c1ccc(O)cc1O` [RHUSCHALCONE II], the GI50 was 3.42 µM (inactive) in [1]; 10.6 µM (inactive) in assay [20]; 9.29 µM (inactive) in assay [2]; 3.17 µM (inactive) in assay [3]; 3.07 µM (inactive) in assay [4]; 4.62 µM (inactive) in assay [5]. Further, the GI50 in [6] was 6.19 µM (inactive); in assay [7] it was 5.97 µM; in [8], 4.83 µM (inactive); in assay [9] it was 2.86 µM (inactive); in [10] it was 5.93 µM (inactive); in assay [11] it was 1.92 µM (inactive). Also, the GI50 in assay [12] is 16.5 µM (inactive); in [13], 2.61 µM (inactive); in assay [19], 2.43 µM (inactive); in assay [15], 3.38 µM (inactive); in assay [16], 4.82 µM (inactive); in [17], 2.52 µM (inactive). In assay [18], the GI50 is 7.6 µM (inactive).
